Assays:
Format in all cases: cell-based
[1] = molecular target: T1, ARwt (Homo sapiens, UniProt P10275); assay: ARE-luciferase reporter in PC-3 cells expressing ARwt; conditions: 1 nM DHT, 100 nM peptidomimetic, 48 h
T1 construct: expressed in transfected cells; host or cells: PC-3 cells (A3); M12 cells (A8)
T1 sequence (P10275 1-920): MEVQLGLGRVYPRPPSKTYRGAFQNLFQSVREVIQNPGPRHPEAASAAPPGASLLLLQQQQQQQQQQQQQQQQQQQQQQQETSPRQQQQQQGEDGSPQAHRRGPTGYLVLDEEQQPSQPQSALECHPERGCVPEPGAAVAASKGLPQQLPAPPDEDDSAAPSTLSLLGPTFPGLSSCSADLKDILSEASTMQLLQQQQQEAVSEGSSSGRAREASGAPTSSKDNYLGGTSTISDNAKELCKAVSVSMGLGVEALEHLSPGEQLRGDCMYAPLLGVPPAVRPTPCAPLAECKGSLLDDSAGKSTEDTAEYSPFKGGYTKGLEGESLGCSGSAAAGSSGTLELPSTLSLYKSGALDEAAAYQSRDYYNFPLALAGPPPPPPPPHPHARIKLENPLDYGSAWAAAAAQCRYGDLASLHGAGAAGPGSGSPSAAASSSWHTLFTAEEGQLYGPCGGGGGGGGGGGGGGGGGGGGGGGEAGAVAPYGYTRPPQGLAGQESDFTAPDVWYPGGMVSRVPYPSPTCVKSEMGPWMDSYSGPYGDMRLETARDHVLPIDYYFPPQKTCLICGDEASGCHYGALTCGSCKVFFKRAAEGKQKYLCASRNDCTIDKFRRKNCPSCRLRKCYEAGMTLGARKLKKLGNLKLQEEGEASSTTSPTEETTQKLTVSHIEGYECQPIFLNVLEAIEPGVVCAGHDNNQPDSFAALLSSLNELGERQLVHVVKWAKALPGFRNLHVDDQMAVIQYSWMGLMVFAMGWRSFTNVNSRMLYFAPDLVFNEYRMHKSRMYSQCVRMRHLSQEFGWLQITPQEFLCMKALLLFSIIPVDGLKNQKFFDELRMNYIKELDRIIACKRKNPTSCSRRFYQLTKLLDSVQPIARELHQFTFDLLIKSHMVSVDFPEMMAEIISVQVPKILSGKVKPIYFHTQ
Procedure: FIGS. 2A-D. Oligobenzamide control of PC3 cell proliferation. (FIG. 2A) Structure of AR deletion mutants with numbered exons (FIG. 2B) Effect of D2 and T6 on basal (AI) and AD transcription. PC-3 cells were transiently transfected with ARE-luciferase along with plasmids expressing ARwt (FIG. 2B), ARv7 (FIG. 2C) or ARΔ1 (FIG. 2D). Cells were maintained for 48 h either without (EtOH) or with (1 nM DHT) and in the presence of 100 nM of peptidomimetic or volume equivalent of vehicle (DMSO) control. Luciferase assay results are shown. Data is normalized to the basal level of expression with AR wt in PC3 cells.
Since the WxxLF motif is also present in the truncated forms of the androgen receptor, the inventors then evaluated the ability of the peptidomimetics to block ARv7-driven transcription from a minimal ARE luciferase reporter. […] These findings were confirmed with a synthetic AR with point mutations in the WxxLF motif (data not shown).

[2] = molecular target: T2, AR567 (Homo sapiens, UniProt P10275); assay: ARE-luciferase reporter in PC-3 cells expressing AR567; conditions: 100 nM peptidomimetic, 48 h
T2 construct: expressed in transfected cells; host or cells: PC-3 cells
T2 sequence (P10275 with tags, fused parts or gaps limits assumed): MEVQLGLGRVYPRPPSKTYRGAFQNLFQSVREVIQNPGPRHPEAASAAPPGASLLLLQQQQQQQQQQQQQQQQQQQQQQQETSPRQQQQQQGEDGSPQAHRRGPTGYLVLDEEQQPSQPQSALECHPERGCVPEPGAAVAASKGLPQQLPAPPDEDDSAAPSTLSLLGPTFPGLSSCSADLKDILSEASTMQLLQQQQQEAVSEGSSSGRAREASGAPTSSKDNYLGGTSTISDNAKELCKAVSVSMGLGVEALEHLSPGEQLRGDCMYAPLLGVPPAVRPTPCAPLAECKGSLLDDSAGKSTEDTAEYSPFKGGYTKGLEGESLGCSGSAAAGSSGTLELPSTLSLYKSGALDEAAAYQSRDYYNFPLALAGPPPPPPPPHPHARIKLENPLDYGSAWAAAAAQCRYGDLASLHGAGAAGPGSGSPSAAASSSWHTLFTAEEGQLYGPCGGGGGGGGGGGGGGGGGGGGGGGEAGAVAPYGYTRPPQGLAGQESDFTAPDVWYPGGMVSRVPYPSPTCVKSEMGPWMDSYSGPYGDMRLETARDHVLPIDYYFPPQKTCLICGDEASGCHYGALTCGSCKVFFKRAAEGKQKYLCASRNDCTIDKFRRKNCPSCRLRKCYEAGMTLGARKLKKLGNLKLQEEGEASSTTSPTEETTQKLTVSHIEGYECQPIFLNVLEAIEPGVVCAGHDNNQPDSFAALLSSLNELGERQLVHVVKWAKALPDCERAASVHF
Procedure: FIGS. 3A-B. Effect of T6 on basal transcription driven by splice variants. PC-3 cells were transiently transfected with ARE-luciferase along with plasmids expressing ARv7 (FIG. 3A) or AR567 (FIG. 3B). Cells were maintained for 48 h either without (EtOH) or with (1 nM DHT) and in the presence of 100 nM of peptidomimetic or volume equivalent of vehicle (DMSO) control. Luciferase assay results are shown. Data is normalized to the basal level of expression with AR wt in PC3 cells.

[3] = tested on: ARv7 regulated genes; assay: Q-PCR of ARv7 regulated genes; conditions: data not shown
Text: Finally, confirmation of the role of T6 in modulating ARv7 driven transcription was obtained by evaluation of the gene expression of ARv7 regulated genes.

CC(C)COc1cc(C(N)=O)ccc1NC(=O)c1ccc(NC(=O)c2ccc([N+](=O)[O-])c(OCCc3ccc4ccccc4c3)c2)c(OCC(C)C)c1 [T6]
Ligand dependent transcription mediated by ARwt [1]: able to suppress | transcription driven by AR567 splice variant [2]: decreases | expression of a panel of ARv7 regulated genes (Q-PCR) [3]: able to abrogate

Source: patent publication US9458095B2, “Oligo-benzamide compounds and their use in treating cancers” (The Board of Regents of the University of Texas System, priority 2011, dated 2016)
